According to PMC3855752, “Function and Distribution of 5-HT2 Receptors in the Honeybee (Apis mellifera)” (PLoS ONE, 2013):
Where two headings read alike, the source gives them in different places.

Columns and labels:
Assay type in all cases: cell-based
Am5-HT2α [1] = biological target: T1, Am5-HT2α (Apis mellifera, UniProt A0A8U1C256); assay: Fluo-4 intracellular Ca2+ assay in stable HEK […] cells, inhibition of serotonin response; details: read-out: Am5-HT2αIC50
T1 construct: gene 5-HT2alpha; cDNA from drone brain

Am5-HT2α [2] = biological target: T1, Am5-HT2α; assay: Fluo-4 intracellular Ca2+ assay in stable HEK […] cells
Am5-HT2β [3] = biological target: T2, Am5-HT2β (Apis mellifera, UniProt A0ACM8QMF9); assay: as above
T2 construct: gene 5-HT2beta; cDNA from drone brain

Am5-HT2β [4] = biological target: T2, Am5-HT2β; assay: Fluo-4 intracellular Ca2+ assay in stable HEK […] cells, inhibition of serotonin response; details: read-out: Am5-HT2βIC50

T2 sequence (A0ACM8QMF9 entry or part of it): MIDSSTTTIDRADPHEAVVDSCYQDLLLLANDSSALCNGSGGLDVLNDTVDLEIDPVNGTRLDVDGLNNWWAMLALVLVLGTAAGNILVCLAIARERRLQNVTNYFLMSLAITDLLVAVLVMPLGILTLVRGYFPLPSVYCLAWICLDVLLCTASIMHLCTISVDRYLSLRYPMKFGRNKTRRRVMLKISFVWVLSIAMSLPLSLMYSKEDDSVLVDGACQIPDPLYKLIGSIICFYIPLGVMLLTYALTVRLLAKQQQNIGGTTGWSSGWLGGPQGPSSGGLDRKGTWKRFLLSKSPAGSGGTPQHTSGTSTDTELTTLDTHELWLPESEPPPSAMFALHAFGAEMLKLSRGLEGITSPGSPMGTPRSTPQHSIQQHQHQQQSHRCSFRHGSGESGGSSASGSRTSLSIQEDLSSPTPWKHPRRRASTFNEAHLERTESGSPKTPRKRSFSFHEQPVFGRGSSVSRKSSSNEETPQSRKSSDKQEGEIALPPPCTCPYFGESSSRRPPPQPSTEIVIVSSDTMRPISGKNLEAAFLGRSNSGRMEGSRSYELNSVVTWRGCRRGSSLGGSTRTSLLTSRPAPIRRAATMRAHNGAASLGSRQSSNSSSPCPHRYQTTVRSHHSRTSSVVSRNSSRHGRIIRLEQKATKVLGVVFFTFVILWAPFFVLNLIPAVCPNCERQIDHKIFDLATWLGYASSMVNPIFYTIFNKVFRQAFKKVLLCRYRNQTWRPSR
T1 sequence (A0A8U1C256 entry or part of it): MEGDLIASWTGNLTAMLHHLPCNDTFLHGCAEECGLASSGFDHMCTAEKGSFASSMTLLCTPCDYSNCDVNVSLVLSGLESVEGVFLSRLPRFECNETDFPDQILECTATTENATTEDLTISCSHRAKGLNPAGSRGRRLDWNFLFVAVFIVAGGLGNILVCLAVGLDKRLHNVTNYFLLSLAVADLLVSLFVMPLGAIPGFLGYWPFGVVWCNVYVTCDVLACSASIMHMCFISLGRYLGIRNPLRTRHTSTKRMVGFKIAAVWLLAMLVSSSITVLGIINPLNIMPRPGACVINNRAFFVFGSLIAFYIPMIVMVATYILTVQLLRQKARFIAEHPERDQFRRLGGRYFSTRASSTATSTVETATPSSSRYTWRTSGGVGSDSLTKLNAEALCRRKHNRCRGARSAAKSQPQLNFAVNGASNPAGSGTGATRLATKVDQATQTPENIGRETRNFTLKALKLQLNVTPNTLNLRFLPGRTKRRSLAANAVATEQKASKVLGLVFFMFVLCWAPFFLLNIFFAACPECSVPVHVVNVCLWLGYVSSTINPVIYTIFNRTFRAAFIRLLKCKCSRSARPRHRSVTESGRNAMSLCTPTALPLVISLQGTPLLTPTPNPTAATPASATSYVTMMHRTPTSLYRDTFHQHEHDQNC

For `Cn1ccc2cc(NC(=O)Nc3cccnc3)ccc21` [SB-200646], the IC50 (Am5-HT2α [1]) was 100 nM.

Work on `CSc1ccc2c(c1)C(N1CCN(C)CC1)Cc1ccccc1S2` (stereo not shown) [methiothepin] yielded an IC50 (Am5-HT2α [1]) of 600 nM.

`CCCN(CCC)C1CCc2cccc(O)c2C1` (stereo not shown) [8-OH-DPAT, 8-hydroxy-2-(di-n-propylamino)tetralin] gave an EC50 (Am5-HT2α [2]; read-out: EC50) of 55900 nM and an EC50 (Am5-HT2β [3]; read-out: EC50) of 562 nM.

In the case of `O=C(c1ccc(F)cc1)C1CCN(CCn2c(=O)[nH]c3ccccc3c2=O)CC1` [ketanserin], the IC50 (Am5-HT2β [4]) is reported as 1500 nM.

With `COc1ccc2[nH]cc(CCN)c2c1` [5-methoxytryptamine] the EC50 (Am5-HT2α [2]) was 70 nM and the EC50 (Am5-HT2β [3]) was 60.4 nM.

Compound `CC[C@@H](CO)NC(=O)[C@@H]1C=C2c3cccc4c3c(cn4C)C[C@H]2N(C)C1` [methysergide] has an IC50 (Am5-HT2α [1]) of 2200 nM.

Work on `NCCc1c[nH]c2ccc(O)cc12` [serotonin] yielded an EC50 (Am5-HT2α [2]; read-out: EC50) of 25.7 nM and an EC50 (Am5-HT2β [3]; read-out: EC50) of 32.5 nM.
